# Experimental data from US10287270B2, “Amino pyrimidine SSAO inhibitors” (ELI LILLY AND COMPANY, priority 2016, dated 2019).
# Counter-ions that a name gives are not always drawn. Like-named read-outs stand apart in the source and are kept apart here.
# What was measured:
# [1] = target: human recombinant SSAO (hSSAO) (Homo sapiens (Human), UniProt Q16853); test: SSAO/VAP-1 in vitro activity, MAO-Glo assay, recombinant SSAO; format: biochemical; conditions: substrate 10 μM, mean ± SEM, read-out: hSSAO Inhib Rel IC50
# Description: Amine oxidase activity of recombinant SSAO, MAOa, and MAOb isoforms are measured using the MAO-Glo™ assay kit from Promega (V1402). Test compounds (with DMSO as vehicle, 0.5% v/v for SSAO) and the enzyme are incubated for 10 mins at room temperature before the addition of the luminogenic substrate. The substrate concentration is 10 μM for human recombinant SSAO. The assays are conducted in a pH 7.4 buffer (50 mM HEPES, 120 mM NaCl, 5 mM KCl, 2 mM CaCl2, 1.4 mM MgCl2, 0.001% Tween-20) in a well-plate. Oxidation of the substrate is conducted for 2 hrs before the addition of detecting reagent according the manufacture's protocol. The IC50 value of the tested compounds is calculated by fitting the dose response curve using a 4-parameter non-linear regression routine.
# [2] = tested on: SSAO activity in rat plasma and liver; test: SSAO target engagement in rat plasma and liver; format: in vivo; conditions: for SSAO Activity (%) Liver 24 hour / SSAO Activity (%) Plasma 2 hour / SSAO Activity (%) Plasma 24 hour: mean ± SEM, n = 6
# Description: The SSAO activity in rat plasma and liver tissues are measured using the MAO-Glo™ assay kit from Promega (V1402). The residual SSAO activity in rats after compound treatment is estimated by measuring the total amine oxidase activity in plasma or liver lysates that are insensitive to the presence of the MAO inhibitor Clogyline and Pargyline. Rats are administered the compound of Example 2 at the doses of 15, 3, 0.6, 0.12, 0.025, 0.005 mg/kg. The control group is administered with the same volume (2 ml/kg) of the dosing vehicle (hydroxyethyl cellulose 1% w/v, 0.25% Tween 80). Plasma and liver at 2 or 24 hours post compound treatment are harvested and stored at −78° C. until analysis. Tissue lysates are prepared by homogenization in a lysis buffer (20 mM HEPES, pH 7.4, 150 mM NaCl, 1 mM EDTA, 1 mM EGTA, 1% Triton X-100 and 1× Roche Complete protease inhibitor tablet). Tissue particles are removed by centrifugation at 12,000 rpm at 4° C. for 30 minutes. 40 μl of plasma or liver lysates is incubated with Clogyline (10 μM) and Pargyline (10 μM) for 20 minutes at room temperature before the addition of the luminogenic substrate (50 μM) for 60 minutes. The product generated is quantified according to the manufacture's procedure. The fraction of activity that is insensitive to the presence of the MAO inhibitors is used as the surrogate for the residual SSAO activity. The compound of Example 2 was evaluated in the protocol essentially as described above administered at various doses.
# [3] = tested on: Male C57BL/6N mice fed 3H diet; test: Mouse model of NASH and fibrosis induced by 3H diet; format: in vivo; conditions: for Hepatic inflammation Score (0-3) Left / Macrovesicular vaculation Score (0-3) Left / Perisinusoidal fibrosis Score (0-3) Left: left lobe; for Hepatic inflammation Score (0-3) Right / Macrovesicular vaculation Score (0-3) Right / Perisinusoidal fibrosis Score (0-3) Right: right lobe
# Description: Male C57BL/6N mice are fed with D09100301 diet (Research Diets, 40% fat, 2% cholesterol, 24% fructose, (the, high fat, high cholesterol and high fructose, the “3H diet”) for 150 days. Each mouse is then singly housed after 5 days for an acclimation period. Plasma alanine aminotransferase (ALT) and cytokeratin 18 (CK18) are measured. After one week of recovery, the mice are randomized into 5 groups based on their ALT values, CK18 values, and body weight. […] Blood is collected from mice treated with the compound of Example 6 for 76 days 2 hours after the last dose. Compound levels in the plasma are analyzed by mass spectroscopy. […] At the completion of the study, the animals are sacrificed and their livers excised. Two sections of the left and right lobes are fixed in neutral buffered 10% formalin. Liver tissue slides are stained with hematoxylin and eosin (H&E), Sirius red, and Masson's Trichrome to prepare slides for pathological analysis. All specimens are examined microscopically and scored as a modified Brunt score NASH Activity Score. Scores are based on the grading scheme and end-points as described in Brunt E. M, et al., “Histopathology of nonalcoholic fatty liver disease,” World J. of Gastroenterol, 2010, 16(42), 5286-5296. Group means are then calculated for each individual end-point. The following endpoints are used to characterize the fast food model of NASH in mice as modified from NASH endpoints (See Brunt, E. M. “Histopathology of nonalcoholic fatty liver disease,” Clin Liver Dis., 2009, 13, 533-544 and Brunt, E. M, et al., “Nonalcoholic steatohepatitis: A proposal for grading and staging the histological lesions”, Am J Gastroenterology, 1999, 94(9), 2467-2474.
# [4] = Plasma compound levels by mass spectroscopy in 3H diet mice; format: in vivo, mouse; conditions: for concentration at 2 h: male, C57BL/6N, plasma, read-out: Plasma Compound Level
# Description: Male C57BL/6N mice are fed with D09100301 diet (Research Diets, 40% fat, 2% cholesterol, 24% fructose, (the, high fat, high cholesterol and high fructose, the “3H diet”) for 150 days. Each mouse is then singly housed after 5 days for an acclimation period. Plasma alanine aminotransferase (ALT) and cytokeratin 18 (CK18) are measured. After one week of recovery, the mice are randomized into 5 groups based on their ALT values, CK18 values, and body weight. […] Blood is collected from mice treated with the compound of Example 6 for 76 days 2 hours after the last dose. Compound levels in the plasma are analyzed by mass spectroscopy.
# [5] = mouse 3H diet, 0.6 mg/kg once daily, mean ± SEM
# [6] = mouse 3H diet, 0.6 mg/kg, mean ± SEM
# [7] = mouse 3H diet, 2 mg/kg once daily, mean ± SEM
# [8] = mouse 3H diet, 2 mg/kg, mean ± SEM
# [9] = mouse 3H diet, 6 mg/kg once daily, mean ± SEM
# [10] = mouse 3H diet, 6 mg/kg, mean ± SEM
# [11] = mouse 3H diet, 20 mg/kg once daily, mean ± SEM
# [12] = mouse 3H diet, 20 mg/kg, mean ± SEM
# Chain of human recombinant SSAO (hSSAO) (Q16853 whole entry, canonical isoform): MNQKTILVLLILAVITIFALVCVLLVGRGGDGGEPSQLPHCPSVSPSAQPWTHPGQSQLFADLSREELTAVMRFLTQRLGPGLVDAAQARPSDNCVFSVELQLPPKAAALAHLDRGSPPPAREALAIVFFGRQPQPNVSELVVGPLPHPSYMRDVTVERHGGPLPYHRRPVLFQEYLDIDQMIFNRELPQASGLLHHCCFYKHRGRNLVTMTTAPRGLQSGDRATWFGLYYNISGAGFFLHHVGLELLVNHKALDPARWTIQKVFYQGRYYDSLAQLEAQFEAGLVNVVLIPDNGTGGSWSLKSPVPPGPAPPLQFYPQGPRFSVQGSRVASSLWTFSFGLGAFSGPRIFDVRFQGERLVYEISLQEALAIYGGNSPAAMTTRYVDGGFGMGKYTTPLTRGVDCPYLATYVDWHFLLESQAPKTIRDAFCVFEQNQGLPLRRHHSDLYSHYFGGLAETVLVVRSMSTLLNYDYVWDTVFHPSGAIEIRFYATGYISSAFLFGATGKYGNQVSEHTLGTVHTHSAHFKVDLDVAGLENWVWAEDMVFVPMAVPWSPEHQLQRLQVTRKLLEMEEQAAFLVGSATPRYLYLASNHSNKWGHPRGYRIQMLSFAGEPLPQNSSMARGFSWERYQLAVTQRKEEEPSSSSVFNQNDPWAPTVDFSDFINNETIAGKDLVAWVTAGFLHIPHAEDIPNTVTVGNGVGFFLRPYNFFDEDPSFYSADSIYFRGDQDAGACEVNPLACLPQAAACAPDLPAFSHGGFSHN
smiles,measurement,setting,value
"COC1CCN(c2ncc(OC/C(=C/F)CN)cn2)CC1 [Example 3, (E)-3-Fluoro-2-[[2-(4-methoxy-1-piperidyl)pyrimidin-5-yl]oxymethyl]prop-2-en-1-amine, Dihydrochloride]",IC50,[1],0.012 ± 0.001 µM
"CO[C@H]1CCN(c2ncc(OC/C(=C/F)CN)cn2)C1 [Example 5, (E)-3-Fluoro-2-[[2-[(3S)-3-methoxypyrrolidin-1-yl]pyrimidin-5-yl]oxymethyl]prop-2-en-1-amine]",IC50,[1],0.032 ± 0.007 µM
"Cl.Cl.NC/C(=C\F)COc1cnc(N2CCC(O)CC2)nc1 [Example 2, 1-[5-[(E)-2-(Aminomethyl)-3-fluoro-allyloxy]pyrimidin-2-yl]piperidin-4-ol Dihydrochloride]",SSAO Activity (%) Liver 24 hour,[2]; 0.005 mg/kg,75 ± 18%
same,SSAO Activity (%) Plasma 2 hour,[2]; 0.005 mg/kg,31 ± 3%
same,SSAO Activity (%) Plasma 24 hour,[2]; 0.005 mg/kg,70 ± 7%
same,SSAO Activity (%) Liver 24 hour,[2]; 0.025 mg/kg,68 ± 14%
same,SSAO Activity (%) Plasma 2 hour,[2]; 0.025 mg/kg,21 ± 1%
same,SSAO Activity (%) Plasma 24 hour,[2]; 0.025 mg/kg,55 ± 9%
same,SSAO Activity (%) Liver 24 hour,[2]; 0.12 mg/kg,45 ± 8%
same,SSAO Activity (%) Plasma 2 hour,[2]; 0.12 mg/kg,7 ± 1%
same,SSAO Activity (%) Plasma 24 hour,[2]; 0.12 mg/kg,35 ± 4%
same,SSAO Activity (%) Liver 24 hour,[2]; 0.6 mg/kg,16.2 ± 2.9%
same,SSAO Activity (%) Plasma 2 hour,[2]; 0.6 mg/kg,4.3 ± 0.8%
same,SSAO Activity (%) Plasma 24 hour,[2]; 0.6 mg/kg,16.3 ± 2.6%
same,SSAO Activity (%) Liver 24 hour,[2]; 3 mg/kg,7.1 ± 1.7%
same,SSAO Activity (%) Plasma 2 hour,[2]; 3 mg/kg,3.6 ± 1.0%
same,SSAO Activity (%) Plasma 24 hour,[2]; 3 mg/kg,8.8 ± 1.3%
same,SSAO Activity (%) Liver 24 hour,[2]; 15 mg/kg,9.6 ± 2.6%
same,SSAO Activity (%) Plasma 2 hour,[2]; 15 mg/kg,−0.6 ± 0.3%
same,SSAO Activity (%) Plasma 24 hour,[2]; 15 mg/kg,6.6 ± 1.8%
same,SSAO activity in rat plasma and liver,[2]; doses 0.005-15 mg/kg,dose-dependently inhibits
"Cl.Cl.NC/C(=C\F)COc1cnc(N2CC[C@H](O)C2)nc1 [Example 6, (3 S)-1-[5-[(E)-2-(Aminomethyl)-3-fluoro-allyloxy]pyrimidin-2-yl]pyrrolidin-3-ol; Dihydrochloride]",IC50,[1],0.052 ± 0.005 µM
same,hepatic inflammation,[3]; 20 mg/kg,significant decrease
same,macrovesicular vaculation,[3]; 20 mg/kg,significant decrease
same,perisinusoidal fibrosis,[3]; 20 mg/kg,significant decrease
same,triglyceride levels in blood,[3]; 6 and 20 mg/kg,decreased
same,ALT,[3]; all groups of treated mice,significant decrease
same,ALT,[3]; [5],530 ± 45 IU/L
same,Plasma TG,[3]; [5],55 ± 6 mg/dL
same,Hepatic inflammation Score (0-3) Left,[3]; [6],2.6 ± 0.1
same,Macrovesicular vaculation Score (0-3) Left,[3]; [6],2.5 ± 0.1
same,Perisinusoidal fibrosis Score (0-3) Left,[3]; [6],2.4 ± 0.2
same,Hepatic inflammation Score (0-3) Right,[3]; [6],2.5 ± 0.1
same,Macrovesicular vaculation Score (0-3) Right,[3]; [6],2.6 ± 0.1
same,Perisinusoidal fibrosis Score (0-3) Right,[3]; [6],1.9 ± 0.2
same,ALT,[3]; [7],483 ± 44 IU/L
same,Plasma TG,[3]; [7],70 ± 11 mg/dL
same,Hepatic inflammation Score (0-3) Left,[3]; [8],2.5 ± 0.1
same,Macrovesicular vaculation Score (0-3) Left,[3]; [8],2.5 ± 0.1
same,Perisinusoidal fibrosis Score (0-3) Left,[3]; [8],2.5 ± 0.2
same,Hepatic inflammation Score (0-3) Right,[3]; [8],2.6 ± 0.1
same,Macrovesicular vaculation Score (0-3) Right,[3]; [8],2.7 ± 0.1
same,Perisinusoidal fibrosis Score (0-3) Right,[3]; [8],1.8 ± 0.2
same,ALT,[3]; [9],495 ± 25 IU/L
same,Plasma TG,[3]; [9],46 ± 4 mg/dL
same,Hepatic inflammation Score (0-3) Left,[3]; [10],2.5 ± 0.2
same,Macrovesicular vaculation Score (0-3) Left,[3]; [10],2.9 ± 0.1
same,Perisinusoidal fibrosis Score (0-3) Left,[3]; [10],2.6 ± 0.2
same,Hepatic inflammation Score (0-3) Right,[3]; [10],2.6 ± 0.2
same,Macrovesicular vaculation Score (0-3) Right,[3]; [10],2.7 ± 0.1
same,Perisinusoidal fibrosis Score (0-3) Right,[3]; [10],2.1 ± 0.3
same,ALT,[3]; [11],466 ± 37 IU/L
same,Plasma TG,[3]; [11],45 ± 5 mg/dL
same,Hepatic inflammation Score (0-3) Left,[3]; [12],2.1 ± 0.1
same,Macrovesicular vaculation Score (0-3) Left,[3]; [12],2.4 ± 0.2
same,Perisinusoidal fibrosis Score (0-3) Left,[3]; [12],1.9 ± 0.2
same,Hepatic inflammation Score (0-3) Right,[3]; [12],2.1 ± 0.1
same,Macrovesicular vaculation Score (0-3) Right,[3]; [12],2.3 ± 0.1
same,Perisinusoidal fibrosis Score (0-3) Right,[3]; [12],1.5 ± 0.2
same,concentration at 2 h,"[4]; mouse, 2 mg/kg once daily, 76 days, 2 hours after last dose, mean ± SEM",0.163 ± 0.021 µg/mL
same,concentration at 2 h,"[4]; mouse, 6 mg/kg once daily, 76 days, 2 hours after last dose, mean ± SEM",0.56 ± 0.029 µg/mL
same,concentration at 2 h,"[4]; mouse, 20 mg/kg once daily, 76 days, 2 hours after last dose, mean ± SEM",2.12 ± 0.219 µg/mL
same,Plasma Compound Level,"[4]; mouse, 0.6 mg/kg once daily, 76 days, 2 hours after last dose, mean ± SEM",66. ± 5 ng/ml
same,plasma compound levels,"[4]; treated mice, all doses",dose-dependent increase
